Measured values: publication PMC10626537, “Pharmacokinetic and pharmacodynamic studies of nicotine in rat brain: a simultaneous investigation of nicotine metabolites and the release of neurotransmitters in vivo” (Frontiers in Chemistry, 2023)
Where two headings read alike, the source gives them in different places.

Columns and labels:
[1] = Online brain microdialysis UHPLC-HRMS/MS pharmacokinetics of Nic and its main metabolites in rat NAc after single Nic injection; format: in vivo; design: AUC0–360 min: unit not given here; details: for Cmax / MRT / Tmax / half-life: rat, brain microdialysate (NAc), ip; for half-life: read-out: t 1/2z
Protocol: (§1) To inhibit the main Nic metabolic enzyme CYP2B in the brain, rats received intraperitoneal injections of proadifen (50 mg kg^−1·day^−1, 4 d) ([Song et al., 2012]). Control animals were pretreated with saline using the same protocol. All the rats were sacrificed by cardiac perfusion after microdialysis sampling. The brain tissues were separated and divided into four parts (cerebrum, cerebellum, diencephalon, and brainstem). The CYP2B activity in different rat brain regions was determined following the instructions of the GENMED CYP2B1 activity fluorescence quantitative detection kit (GENMED SCIENTIFICS INC. U.S.A, GMS18019.1).
(§2) The mass spectrometer was operated in positive ionization mode. […] The normalized collision energy was set at 10%.

[2] = tested on: release of neurotransmitters in the NAc; test: Microdialysis release of neurotransmitters in rat NAc after Nic exposure under regulation of Nic metabolism; format: in vivo; details: for peak concentration of DOPAC / peak concentration of HVA: after Nic stimulation (2 mg kg^-1 ip)
Protocol: as §1, §2

[3] = tested on: monoamine neurotransmitters in rat striatum; details: rat striatum dialysate; after 3 h of Nic exposure (2 mg kg^-1 ip)
Text: Anesthesia was induced with 3% isoflurane in an induction chamber before surgical procedures and was placed in a stereotaxic frame equipped with a rat ear and bite bar. Rat was maintained under anesthesia with 1%–2% isoflurane during operation procedures. And the cranium above the ventral striatum (coordinates relative to bregma: anterior/posterior (AP), +1.2 mm; medial/lateral (ML), −2.4 mm; dorsal/ventral (DV), −6.0 mm) or NAc (coordinates relative to bregma: anterior/posterior (AP), +1.7 mm; medial/lateral (ML), −1.5 mm; dorsal/ventral (DV), −6.5 mm) was exposed to implant the probe guide-cannula (CMA/12), two screws were implanted into the skull to serve as an anchor and dental cement was used as an adhesive to fixed the probe guide-cannula. To avoid the interference of neurotransmitter changes due to physical stimulation of pain receptors during intraperitoneal injection of Nic, Nic was injected with the aid of an administration catheter (Instech, BTPU-040, 6.35 × 10.16 mm, America), which was implanted in the abdomen, the other end of the catheter was passed under the skin and sent to the back and sealed with a plug (Instech, PNP3M-F22R, America). The rats were housed individually and allowed to recover from surgery for at least 24 h.
For in vivo microdialysis sampling, the probe (CMA/12 Elite, membrane parameters: polyarylethersulfone material; 2 mm length; φ 0.5 mm; 20 kDa cut-off) was inserted into the brain through the cannula. After implantation, the probe was perfused with Ringer’s solution by the syringe pump (CMA/402, piston propulsion speed: 2.4 μm·min^-1–1.2 mm min^-1; velocity range: 0.1 μL·min^-1–20 μL min^-1; precision: −1.5%-1.5%) at fixed flow rates (1.5 μL min^-1), and the dialysates were analyzed under the optimized UHPLC-HRMS/MS condition directly. Intraperitoneal administration of 2 mg kg^-1 Nic was performed until stable levels of neurotransmitters were obtained, which was defined as the mean value of neurotransmitter concentrations in six consecutive samples varied by no more than 10%.
UHPLC-HRMS/MS system was performed on Dionex Ultimate 3000 UHPLC equipped with a Q-Exactive mass spectrometer and electrospray ionization (ESI) interface (Thermo Fisher Scientific, Germany). Chromatographic separation was achieved by the pentafluorophenyl phase column (Discovery® HS F5-3 column, 2.1 × 150 mm, 3 μm) with linear binary gradient elution, at a flow rate of 0.5 mL min^-1. Eluent A was 10 mM ammonium acetate with FA (0.1%, v/v) dissolved in water, and eluent B was acetonitrile with 0.1% FA (v/v). […] From 3 to 6 min, a linear gradient was applied from 45% to 75% B and then return linearly to the initial condition at 9 min and the column was allowed to equilibrate for 1 min.
The mass spectrometer was operated in positive ionization mode. The optimized mass spectrometer parameters were as follows: a resolution of 35000; automatic gain control (AGC) target was 2.0 e^5; maximum injection time (IT) was 100 m; 3.5 kV for spray voltage; ion transfer tube temperature, 350°C; S-Lens RF level, 60%. The isolation window of the precursor ions was done using a quadrupole with an isolation window of m/z 1. The normalized collision energy was set at 10%. Analytes were determined by a parallel reaction monitoring (PRM) method by acquiring two transitions for each compound. The most specific transition was selected for the quantitative purpose. All data were gathered and analyzed using Xcalibur 2.2 software (Thermo Fisher Scientific, Germany). […]

CYP2B1 = target: T1, CYP2B1 (Rattus norvegicus, UniProt P00176); test: CYP2B1 activity in rat brain tissue after proadifen pretreatment (GENMED CYP2B1 activity fluorescence quantitative detection kit); format: in vivo; details: 4 days
T1 construct: The brain tissues were separated and divided into four parts (cerebrum, cerebellum, diencephalon, and brainstem); from tissue; host or cells: brain tissue (cerebrum, cerebellum, diencephalon, brainstem) of male Sprague Dawley rats
T1 sequence (P00176 1-491): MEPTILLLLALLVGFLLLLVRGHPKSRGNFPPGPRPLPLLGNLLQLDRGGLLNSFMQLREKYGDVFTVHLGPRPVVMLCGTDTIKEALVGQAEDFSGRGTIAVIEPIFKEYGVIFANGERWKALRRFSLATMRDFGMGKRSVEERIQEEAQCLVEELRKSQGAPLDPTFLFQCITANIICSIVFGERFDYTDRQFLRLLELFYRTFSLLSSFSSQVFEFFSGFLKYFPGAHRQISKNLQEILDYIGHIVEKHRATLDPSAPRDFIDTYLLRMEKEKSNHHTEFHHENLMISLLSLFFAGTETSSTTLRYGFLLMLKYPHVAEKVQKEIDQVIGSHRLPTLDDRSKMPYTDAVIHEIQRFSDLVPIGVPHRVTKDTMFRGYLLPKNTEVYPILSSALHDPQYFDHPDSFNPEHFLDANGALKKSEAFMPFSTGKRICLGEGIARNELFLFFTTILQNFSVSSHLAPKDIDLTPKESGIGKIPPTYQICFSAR
Protocol: as §1

[4] = rat NAc, Nic 2 mg kg^-1 ip, Prodifine (proadifen) pretreated
[5] = rat NAc, Nic 2 mg kg^-1 ip, saline-pretreated
[6] = 2 mg/kg, rat NAc, Nic 2 mg kg^-1 ip, Prodifine (proadifen) pretreated
[7] = 2 mg/kg, rat NAc, Nic 2 mg kg^-1 ip, saline-pretreated
[8] = after Nic exposure, proadifen pretreatment group
[9] = Nic 2 mg kg^-1 ip, proadifen vs saline pretreatment

## CN1C(=O)CC[C@H]1c1cccnc1 [Cot, (−) cotinine]
[1]; [4]
  CL/F: 7.0 mL/min
[1]; [5]
  CL/F: 9.0 mL/min
[1]; [6]
  Cmax: 20.3 ng/mL
  MRT: 3.12 h
  Tmax: 2 h
  half-life: 2.19 h
[1]; [7]
  Cmax: 16.7 ng/mL
  MRT: 3.11 h
  Tmax: 2.67 h
  half-life: 1.74 h

## CN1CCC[C@H]1c1cccnc1 [Nic, (−) nicotine]
[1]; Nic 2 mg kg^-1 ip
  time by which Nic was almost completely cleared from the rat brain: ≤ 360 min
[1]; [4]
  CL/F: 14.0 mL/min
[1]; [5]
  CL/F: 25.0 mL/min
[1]; rat brain, Nic 2 mg kg^-1 ip, proadifen-pretreated vs saline
  brain C max of Nic in proadifen group relative to saline group: 1.26 times
[1]; 2 mg kg^-1, rat NAc, Nic 2 mg kg^-1 ip, Prodifine (proadifen) pretreated
  Cmax: 1220 ng/mL
[1]; [6]
  Cmax: 1220 ng/mL
  MRT: 1.89 h
  Tmax: 0.5 h
  half-life: 1.28 h
[1]; [7]
  Cmax: 968 ng/mL
  MRT: 1.43 h
  Tmax: 0.5 h
  half-life: 2.15 h
[2]; [8]
  C max of 5-HIAA: ~240 % of baseline
  C max of 5-HT: ~390 % of baseline
[2]; after Nic injection
  peak level of Ach relative to baseline: almost doubled
[2]; proadifen pretreated group
  peak concentration of DOPAC: ~340 % of the baseline
  peak concentration of HVA: ~330 % of the baseline
[2]; saline group
  peak concentration of DOPAC: ~290 % of the baseline
  peak concentration of HVA: ~270 % of the baseline
[3]
  average level of 5-HIAA: 234.4 µg/L
  average level of 5-HT: 45.9 µg/L
  average level of DA: 25.1 µg/L
  average level of DOPAC: 99.2 µg/L
  average level of HVA: 169.8 µg/L

## CCCC(C(=O)OCCN(CC)CC)(c1ccccc1)c1ccccc1 [proadifen]
CYP2B1; proadifen 50 mg kg^-1 d^-1 ip, vs saline-pretreated rats
  decrease of whole brain CYP2B1 activity on average: 36.9%
CYP2B1; proadifen 50 mg·kg^−1·d^−1 ip
  effect on brain CYP2B1 activity: significant inhibition
[2]; Nic 2 mg kg^-1 ip
  effect of proadifen inhibition on Nic-induced peak level of Ach: did not further increased it
[2]; [9]
  average level of GABA in proadifen group relative to saline group: 2.7 times
  average level of serotonin under inhibition of nicotine metabolism relative to control: 1.2 times

## C[N@+]1([O-])CCC[C@H]1c1cccnc1 [NNO, (1′S, 2′S)-nicotine-1′-oxide]
[1]; rat NAc dialysate, Nic 2 mg kg^-1 ip single injection, Prodifine (proadifen 50 mg kg^-1 d^-1 ip, 4 days) pretreated, two-compartmental model
  AUC0–360 min: 0.6
[1]; [4]
  CL/F: 3.2 mL/min
[1]; [5]
  CL/F: 5.0 mL/min
[1]; rat brain, Nic 2 mg kg^-1 ip, proadifen-pretreated vs saline control
  decrease of C max (level) of Nic metabolite after CYP2B1 inhibition compared with control rats: 65.6%
[1]; [6]
  Cmax: 5.2 ng/mL
  MRT: 1.57 h
  Tmax: 0.667 h
  half-life: 0.895 h
[1]; [7]
  Cmax: 15.1 ng/mL
  MRT: 2.39 h
  Tmax: 0.5 h
  half-life: 0.802 h
